Results reported in patent US6632809B2, “Gyrase inhibitors and uses thereof” (Vertex Pharmaceuticals Incorporated, priority 2000, dated 2003).
≈ marks a conversion by molar mass, not a printed value.

What was measured:
test bacteria = experiment: Susceptibility Testing in Liquid Media (MIC assay); type: cell-based; details: broth dilution, MHB, 35° C. overnight (16 to 20 hr), organism not given; for MIC: read-out: MIC (minimal inhibitory concentration) activity level
Description: Susceptibility Testing in Liquid Media
Compounds of this invention were also tested for antimicrobial activity by susceptibility testing in liquid media. Such assays were performed within the guidelines of the latest NCCLS document governing such practices: “M7-A5 Methods for dilution Antimicrobial Susceptibility Tests for Bacteria that Grow Aerobically; Approved Standard—Fifth Edition (2000)”. Other publications such as “Antibiotics in Laboratory Medicine” (Edited by V. Lorian, Publishers Williams and Wilkins, 1996) provide essential practical techniques in laboratory antibiotic testing. Essentially, several discrete bacterial colonies (3 to 7) from a freshly streaked plate were transferred to an appropriate rich broth medium such as MHB, supplemented where appropriate for the more fastidious organisms. This was grown overnight to high density followed by a 1 or 2-thousand-fold dilution to give an inoculation density of between 5×10^5 and 5×10^6 CFU per mL. Alternatively, the freshly picked colonies can be incubated at 37° C. for about 4 to 8 hrs until the culture equals or exceeds a turbidity of a 0.5 McFarland standard (approximately 1.5×10^8 cells per mL) and diluted to give the same CFU per mL as above. In a more convenient method, the inoculum was prepared using a commercially available mechanical device (the BBL PROMPT System) that involves touching five colonies directly with a wand, containing crosshatch grooves at its bottom, followed by suspension of the bacteria in an appropriate volume of saline. Dilution to the appropriate inoculum cell density was made from this cell suspension. The broth used for testing consists of MHB supplemented with 50 mg per L of Ca^2+ and 25 mg per L of Mg^2+. Standard dilution panels of control antibiotics were made and stored as in the NCCLS standard M7-A5, the dilution range typically being in the 128 μg per mL to 0.015 μg per mL (by 2-fold serial dilution). The test compounds were dissolved and diluted fresh for experimentation on the same day; the same or similar ranges of concentration as above being used. The test compounds and controls were dispensed into a multiwell plate and test bacteria added such that the final inoculation was approximately 5×10^4 CFU per well and the final volume was 100 μL. The plates were incubated at 35° C. overnight (16 to 20 hr) and checked by eye for turbidity or quantitated with a multiwell plate reader. […] Such determinations were also compared to the appropriate tables contained in the above two publications to ensure that the range of antibacterial activity is within the acceptable range for this standardized assay.
The compound numbers correspond to the compound numbers in Table 1.

[1] = molecular target: DNA gyrase (374 kDa Gyr A2B2 subunit from Staphylococcus aureus) (Staphylococcus aureus, UniProt P0A0K8); experiment: Gyrase ATPase Assay; type: biochemical; details: 10 μM concentration, ATPase assay at 30° C., 0.9 mM ATP, average of duplicate values; for inhibition at 10 µM: read-out: Gyrase Inhibitory Activity (percent inhibition)
Chain of DNA gyrase (374 kDa Gyr A2B2 subunit from Staphylococcus aureus) (P0A0K8 whole entry): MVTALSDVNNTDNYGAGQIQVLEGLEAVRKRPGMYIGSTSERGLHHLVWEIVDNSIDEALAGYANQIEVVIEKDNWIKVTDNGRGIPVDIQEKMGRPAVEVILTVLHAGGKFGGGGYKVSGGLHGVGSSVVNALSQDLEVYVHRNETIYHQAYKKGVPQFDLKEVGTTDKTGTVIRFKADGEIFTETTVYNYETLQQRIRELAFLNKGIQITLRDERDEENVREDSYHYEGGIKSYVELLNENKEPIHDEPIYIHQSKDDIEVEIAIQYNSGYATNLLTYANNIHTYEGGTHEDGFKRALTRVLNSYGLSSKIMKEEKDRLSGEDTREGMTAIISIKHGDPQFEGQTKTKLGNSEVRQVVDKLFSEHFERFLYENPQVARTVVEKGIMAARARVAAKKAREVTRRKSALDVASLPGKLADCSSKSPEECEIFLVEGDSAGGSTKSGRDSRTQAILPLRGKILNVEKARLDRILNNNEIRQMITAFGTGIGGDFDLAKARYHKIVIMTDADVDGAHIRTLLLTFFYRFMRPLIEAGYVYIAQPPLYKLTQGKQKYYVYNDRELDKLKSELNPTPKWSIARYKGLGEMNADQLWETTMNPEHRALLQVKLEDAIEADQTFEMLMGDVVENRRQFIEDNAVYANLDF
Chain of DNA gyrase (374 kDa Gyr A2B2 subunit from Staphylococcus aureus) (P20831 whole entry, further chain): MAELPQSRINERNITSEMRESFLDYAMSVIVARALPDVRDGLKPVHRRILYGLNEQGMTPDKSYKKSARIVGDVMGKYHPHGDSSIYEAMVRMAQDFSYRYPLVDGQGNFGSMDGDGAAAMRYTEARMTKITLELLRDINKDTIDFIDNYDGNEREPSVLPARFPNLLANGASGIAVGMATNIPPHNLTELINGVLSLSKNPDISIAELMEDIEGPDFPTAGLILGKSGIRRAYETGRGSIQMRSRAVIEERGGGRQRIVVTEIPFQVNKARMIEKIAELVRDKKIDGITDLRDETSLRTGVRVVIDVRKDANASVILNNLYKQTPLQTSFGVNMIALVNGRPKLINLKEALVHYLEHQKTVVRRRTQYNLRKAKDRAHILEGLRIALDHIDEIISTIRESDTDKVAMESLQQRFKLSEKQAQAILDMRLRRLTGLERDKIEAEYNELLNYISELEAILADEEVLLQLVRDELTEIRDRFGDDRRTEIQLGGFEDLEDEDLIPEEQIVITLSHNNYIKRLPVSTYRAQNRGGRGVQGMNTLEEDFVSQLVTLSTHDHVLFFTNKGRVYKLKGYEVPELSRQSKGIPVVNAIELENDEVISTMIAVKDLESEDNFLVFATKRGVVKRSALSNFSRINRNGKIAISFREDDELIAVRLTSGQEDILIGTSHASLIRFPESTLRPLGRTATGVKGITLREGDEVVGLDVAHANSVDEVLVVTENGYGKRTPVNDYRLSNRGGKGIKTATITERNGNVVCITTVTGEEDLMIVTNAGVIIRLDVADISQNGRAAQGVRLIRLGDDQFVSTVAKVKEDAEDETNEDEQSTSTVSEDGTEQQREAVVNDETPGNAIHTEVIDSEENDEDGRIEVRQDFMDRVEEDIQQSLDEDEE
Description: The ATP hydrolysis activity of DNA gyrase was measure by coupling the production of ADP through pyruvate kinase/lactate dehydrogenase to the oxidation of NADH. This method has been described previously (Tamura and Gellert, 1990, J. Biol. Chem., 265, 21342).
ATPase assays are carried out at 30° C. in buffered solutions containing 100 mM TRIS pH 7.6, 1.5 mM MgCl2, 50 mM KCl. The coupling system contains (final concentrations) 2.5 mM phosphoenol pyruvate, 200 μM nicotinamide adenine dinucleotide (NADH), 1 mM DTT, […], and 10 ug/ml lactate dehydrogenase. 40 nanomolar enzyme (374 kDa Gyr A2B2 subunit from Staphylococcus aureus) and a DMSO solution of the inhibitor to a final concentration of 4% are added and the reaction mixture is allowed to incubate for 10 minutes at 30° C. The reaction is then started by the addition of ATP to a final concentration of 0.9 mM and the rate of NADH disappearance at 340 nanometers is measured over the course of 10 minutes. The percent inhibition values are determined from rate versus concentration profiles and are reported as the average of duplicate values.
The compound numbers correspond to the compound numbers in Table 1. Compounds having an activity designated as “A” provided a percent inhibition value below 50 percent; compounds having an activity designated as “B” provided a percent inhibition value between 50 and 75 percent; and compounds having an activity designated as “C” provided a percent inhibition value greater than 75 percent.

With `CCNC(=O)Nc1nc2cc(-c3cccnc3)c(OC)cc2[nH]1` [Ia-42] the MIC (test bacteria) was 10 to 40 µg/mL (≈ 32.1 to 128 µM) and the inhibition at 10 µM [1] was > 75%.
For `O=C(Nc1nc2cc(-c3cccnc3)ccc2[nH]1)NC1CCCC1` [Ia-121], the MIC (test bacteria) was > 40 µg/mL and the inhibition at 10 µM [1] was < 50%.
For `CCNC(=O)Nc1nc2cc(-c3cccnc3)ccc2[nH]1` [Ia-118], the MIC (test bacteria) was < 10 µg/mL and the inhibition at 10 µM [1] was > 75%.
With `CCNC(=O)Nc1nc2cc(-c3cccc(=O)[nH]3)ccc2[nH]1` [Ia-158] the MIC (test bacteria) was > 40 µg/mL and the inhibition at 10 µM [1] was > 75%.
With `CCNC(=O)Nc1nc2cc(-n3cc(C(=O)NCc4cccnc4)cn3)ccc2[nH]1` [Ia-174] the MIC (test bacteria) was > 40 µg/mL and the inhibition at 10 µM [1] was > 75%.
`CCNC(=O)Nc1nc2cc(-c3nnco3)ccc2[nH]1` [Ia-151] was tested, and the MIC (test bacteria) was > 40 µg/mL and the inhibition at 10 µM [1] was > 75%.
For `CCNC(=O)Nc1nc2cc(-c3ccc(OCC)nc3)ccc2[nH]1` [Ia-163], the MIC (test bacteria) was < 10 µg/mL and the inhibition at 10 µM [1] was > 75%.
In the case of `CCNC(=O)Nc1nc2cc(-c3cccnc3)cc(O)c2[nH]1` [Ia-167], the “MIC (minimal inhibitory concentration) activity level” value (test bacteria) is reported as “C (provided an MIC of greater than 40 μg/mL)” and the inhibition at 10 µM [1] is reported as > 75%.
In the case of `CCNC(=O)Nc1nc2nc(-n3cnc(C(=O)OC)c3)ccc2[nH]1` [Ia-184], the MIC (test bacteria) is reported as > 40 µg/mL and the inhibition at 10 µM [1] is reported as 50 to 75%.
In the case of `CCNC(=O)Nc1nc2cc(-c3cccc(F)c3F)ccc2[nH]1` [Ia-152], the MIC (test bacteria) is reported as 10 to 40 µg/mL (≈ 31.6 to 126 µM) and the inhibition at 10 µM [1] is reported as > 75%.
With `CCOC(=O)Nc1nc2cc(-c3cncc(NC(C)=O)c3)ccc2[nH]1` [Ia-122] the MIC (test bacteria) was > 40 µg/mL and the inhibition at 10 µM [1] was > 75%.
With `CCCNC(=O)Nc1nc2cc(-c3cccnc3)ccc2[nH]1` [Ia-119] the MIC (test bacteria) was > 40 µg/mL and the inhibition at 10 µM [1] was > 75%.
In the case of `CCNC(=O)Nc1nc2cc(-c3ccc(CNS(C)(=O)=O)nc3)ccc2[nH]1` [Ia-154], the MIC (test bacteria) is reported as > 40 µg/mL and the inhibition at 10 µM [1] is reported as > 75%.
In the case of `CCNC(=O)Nc1nc2cc(-c3cnc(NC(C)COC)nc3)cc(C)c2[nH]1` (stereo not shown) [Ia-141], the MIC (test bacteria) is reported as < 10 µg/mL and the inhibition at 10 µM [1] is reported as > 75%.
`CCNC(=O)Nc1nc2cc(-n3cnc(C(=O)OC)c3)ccc2[nH]1` [Ia-156, 1-[2-(3-Ethyl-ureido)-3H-benzoimidazol-5-yl]-1H-imiazole-4-carboxylic acid methyl ester] was tested, and the MIC (test bacteria) was 10 to 40 µg/mL (≈ 30.5 to 122 µM) and the inhibition at 10 µM [1] was > 75%.
`CCNC(=O)Nc1nc2cc(-c3cccnc3)cc(OCc3ccccc3)c2[nH]1` [Ia-168] was tested, and the MIC (test bacteria) was < 10 µg/mL and the inhibition at 10 µM [1] was > 75%.
For `CC(C)CNC(=O)Nc1nc2cc(-c3ccc(F)nc3)ccc2[nH]1` [Ia-159], the MIC (test bacteria) was > 40 µg/mL and the inhibition at 10 µM [1] was < 50%.
With `CCNC(=O)Nc1nc2cc(-c3cnc(SC)nc3)ccc2[nH]1` [Ia-92] the MIC (test bacteria) was < 10 µg/mL and the inhibition at 10 µM [1] was > 75%.
In the case of `CCNC(=S)Nc1nc2cc(-c3ccccc3)ccc2[nH]1` [Ia-90], the MIC (test bacteria) is reported as < 10 µg/mL and the “Gyrase Inhibitory Activity (percent inhibition)” value [1] is reported as “C (provided a percent inhibition value greater than 75 percent)”.
With `CCNC(=O)Nc1nc2cc(-n3ccc(=O)c(OCc4ccccc4)c3C)ccc2[nH]1` [Ia-160] the MIC (test bacteria) was > 40 µg/mL and the inhibition at 10 µM [1] was > 75%.
In the case of `CCNC(=O)Nc1nc2nc(-n3cnc(C(=O)O)c3)ccc2[nH]1` [Ia-185], the MIC (test bacteria) is reported as > 40 µg/mL and the inhibition at 10 µM [1] is reported as > 75%.
`CSc1ncc(-c2ccc3[nH]c(NC(=O)NC(C)C)nc3c2)cn1` [Ia-116] was tested, and the MIC (test bacteria) was > 40 µg/mL and the inhibition at 10 µM [1] was 50 to 75%.
For `CCNC(=O)Nc1nc2nc(-n3cnc(C(=O)NC4CC4)c3)ccc2[nH]1` [Ia-187], the MIC (test bacteria) was 10 to 40 µg/mL (≈ 28.2 to 113 µM) and the inhibition at 10 µM [1] was > 75%.
`CCNC(=O)Nc1nc2cc(-c3nnc(C)o3)ccc2[nH]1` [Ia-150] was tested, and the MIC (test bacteria) was > 40 µg/mL and the inhibition at 10 µM [1] was 50 to 75%.
With `C=CCCCOc1ccc(-c2ccc3[nH]c(NC(=O)NCC)nc3c2)cn1` [Ia-182] the MIC (test bacteria) was > 40 µg/mL and the inhibition at 10 µM [1] was > 75%.
In the case of `CCNC(=O)Nc1nc2cc(-c3cccnc3)c(OCCOC)c(C)c2[nH]1` [Ia-149], the MIC (test bacteria) is reported as > 40 µg/mL and the inhibition at 10 µM [1] is reported as > 75%.
For `CCNC(=O)Nc1nc2cc(-c3cccnc3)cc(C)c2[nH]1` [Ia-58], the MIC (test bacteria) was < 10 µg/mL and the inhibition at 10 µM [1] was > 75%.
`CCNC(=O)Nc1nc2cc(-c3cccnc3)c(N3CCOCC3)cc2[nH]1` [Ia-164] was tested, and the MIC (test bacteria) was > 40 µg/mL and the inhibition at 10 µM [1] was > 75%.
With `CCNC(=O)Nc1nc2cc(-c3ccc(CN)cc3)ccc2[nH]1` [Ia-137] the MIC (test bacteria) was > 40 µg/mL and the inhibition at 10 µM [1] was > 75%.
`C=CCNC(=O)c1cn(-c2ccc3[nH]c(NC(=O)NCC)nc3c2)cn1` [Ia-188] was tested, and the MIC (test bacteria) was < 10 µg/mL and the inhibition at 10 µM [1] was > 75%.
With `CCNC(=O)Nc1nc2cc(-c3ccc(CN)nc3)ccc2[nH]1` [Ia-144] the MIC (test bacteria) was 10 to 40 µg/mL (≈ 32.2 to 129 µM) and the inhibition at 10 µM [1] was > 75%.
With `CCNC(=O)Nc1nc2cc(-n3ccc(=O)c(O)c3C)ccc2[nH]1` [Ia-161] the MIC (test bacteria) was > 40 µg/mL and the inhibition at 10 µM [1] was < 50%.
